“And” between values parts separate entries of the source, which are not always exact repeats. Equal entries are not always repeated. Where two headings read alike, the source gives them in different places.
Columns and labels:
[1] = target: T1, GPx4 embedded in a mmRM (membrane-bound GPx4) (Homo sapiens, UniProt P36969, U73G); assay: NMR (15N-HSQC) titration of fragments against GPx4 embedded in DLPC/DPC mmRM, apparent Kd; assay type: binding; details: ± standard error of global Kd fit
T1 construct: Truncated U46G-GPx4 with a TEV cleavable poly-histidine tag was inserted into vector; poly-histidine tag with TEV cleavage site; host or cells: BL21 (DE3) E. coli
T1 sequence (P36969 1-170 isoform P36969-2 U46G): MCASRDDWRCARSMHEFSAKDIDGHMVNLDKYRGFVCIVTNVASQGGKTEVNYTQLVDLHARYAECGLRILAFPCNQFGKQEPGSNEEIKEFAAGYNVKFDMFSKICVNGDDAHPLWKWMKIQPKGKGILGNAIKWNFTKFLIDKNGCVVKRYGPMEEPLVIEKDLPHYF
From the text: To assess whether the fragment hits are bound specifically to GPx4 and to calculate affinity, we performed NMR-based titrations. Chemical shift changes that approach saturation in a structurally localized manner target indicate specific binding.[24] This allows true positive hits to be separated from false positives and weak or nonspecific binders. Additionally, NMR-based titrations allow for the extraction of a binding affinity (Kd). To calculate apparent Kd values, CSP cutoffs were used to isolate the resonances with most shifting using 1 standard deviation above the average CSP. All 14 fragments identified from the deconvolutions were titrated up to 400 μM or 1 mM if needed. Of the 14, 9 had apparent Kds less than 1 mM and were identified as hits. Observed here is a 0.47% hit rate with best affinities in the μM range for the membrane-bound form of GPx4 and is consistent with ligandable and potentially druggable targets.[14],[57] […] The remaining five fragments, 10–14, were ruled out as weaker (>∼1 mM) or nonspecific binders. Weak or nonspecific binding could indicate that fragments partitioning to the mmRM surface and perturb the protein spectrum through a simple change in the chemical environment at the interface, among other possible nonspecific effects. […] We note that the weaker and nonspecific fragments were only eliminated due to interaction modes that are too weak or unproductive for advancement toward inhibitors; yet, binding was nevertheless detected. […] We note here that apparent Kd values reported in this study account for a total amount of fragment and protein within the mmRM sample and are not corrected for any potential concentrating effect due to localization of fragment to the mmRM surface or water phase.
NMR samples were prepared with ^15N-isotopically labeled protein with 10% v/v of d-pentane as the lock solvent (Sigma-Aldrich, St. Louis, MO). All NMR spectra were collected at 25 °C on a 700 MHz Bruker Avance III instrument. All NMR spectra were processed using NMRPipe[66] and analyzed using NMRFAM-Sparky.[67] Chemical shifts for GPx4 (BMRB 50955) were assigned from those previously published.[52] Chemical shift perturbations from ^15N-HSQC spectra were calculated using the following formula [drawing 1] where Δ^1H and Δ^15N are the changes in ^1H and ^15N chemical shifts, respectively.
The 14 fragments isolated from deconvolutions were purchased from Life Chemicals (fragments 1, 4, 6, and 11, and 12–14), Combi-Blocks (2, 3, 5, 9, and 10), or ChemBridge Hit2Lead (7 and 8). All fragment 1 and 5 analogues were also purchased from ChemBridge Hit2Lead. Fragments and analogues purchased from Life Chemicals and Hit2Lead are 90+% pure, while the fragments purchased from Combi-Blocks ranged from 95 to 97% pure. The day prior to the titration, a double-volume sample of encapsulated GPx4 was made before being split up into two separate vials. Half of the sample was added to the vial containing predried fragment corresponding to 400 μM or 1 mM. […] If they were, then the two samples were mixed to produce varying concentrations and to measure a titration curve. The top-shifting resonances were determined by calculating the average CSP at 400 μM or 1 mM and 1 and 2 standard deviations (σ) above that average. The CSP for the resonance at each fragment concentration was extracted and fit to a curve using an affinity equation that accounts for ligand depletion [drawing 2]
Any resonance producing a curve with an R^2 below 0.85 was removed, and the remaining resonances were then used to fit a global apparent Kd curve for the fragment hit. Standard error for Kd from the global fit of all of the selected residues is reported.

[2] = DLS check for fragment aggregation in aqueous conditions; assay type: physicochemical; details: 15 mM, 5% DMSO
Protocol: Next, we sought to understand whether fragment hits were solely bound to the membrane-embedded form of GPx4 or could also bind to the aqueous form. We performed aqueous binding experiments with 3 fragment hits with varying hydrophobicities. Of the fragment hits with Kd < 1 mM, the most hydrophobic fragment (fragment 5, cLog D 2.05, 5-hydroxy-1,3-benzoxathiol-2-one) and a hydrophilic fragment with the strongest affinity (fragment 6, cLog D −2.14, (2-methoxyethyl)(4-pyridinylmethyl)amine hydrochloride) were selected, along with a compound with an amphipathic structure and only modest hydrophobicity (fragment 1, cLog D 1.05, 4-(phenylamino)-1,2-dihydropyridin-2-one). Aqueous GPx4 was combined with 400 μM of either fragments 1, 5, or 6 to directly compare to the mmRM experiments. […] Since our fragments have variable degrees of solubility and partitioning, we realized that a hydrophilic fragment like 6 may partition into the water core of the mmRM, essentially causing a concentration effect as observed previously.[32],[33] […]
Fragments 1, 5, and 6 were selected to perform proof-of-concept experiments in bulk aqueous conditions. […] However, the 100 mM Bis-Tris at pH 6.0 ensured that the pH was not altered. ^15N-HSQC experiments were collected, and CSPs were analyzed and compared to the top-shifting resonances determined from the mmRM experiments. […]

[3] = Table 2, analogues of fragment 5, GPx4 in mmRM, read-out: Apparent Kd
[4] = Table 1, GPx4 in DLPC/DPC mmRM, NMR titration up to 400 μM or 1 mM, read-out: Kd (apparent)

SMILES: O=c1oc2c(-c3ccc(Cl)c(Cl)c3)cc(O)cc2s1 [Analog 5.5]
- Kd [1, 3]: ~30 µM and 30 µM

SMILES: O=c1cc(Nc2ccccc2)cc[nH]1 [Fragment 1, 4-(phenylamino)-1,2-dihydropyridin-2-one]
- Kd [1, 4]: 105 ± 30 µM
- Fragment aggregation by DLS [2]: a small population of large aggregating species

SMILES: O=c1oc2ccc(O)cc2s1 [Fragment 5, 5-hydroxy-1,3-benzoxathiol-2-one]
- Kd [1, 4]: 220 ± 90 µM
- Kd [1, 3]: 220 ± 90 µM
- Fragment aggregation by DLS [2]: a small population of large aggregating species

SMILES: COCCNCc1ccncc1.Cl [Fragment 6, (2-methoxyethyl)(4-pyridinylmethyl)amine hydrochloride]
- Kd [1, 4]: 230 ± 60 µM
